# Experimental data from patent US20260028354A1, “TETRAHYDRONAPHTHALENE DERIVATIVES AS ESTROGEN RECEPTOR DEGRADERS” (REGENT OF THE UNIVERSITY OF MICHIGAN, priority 2022, published 2026).
# Test: Western blot analysis for "B" compounds
# Format: cell-based
# Settings: read-out: Traditional Western Degradation Potency (DC50)
# Description: Western Blot Analysis. Western blot analysis was performed essentially as described previously. The cells treated with indicated compounds were lysed in Radioimmunoprecipitation Assay Protein Lysis and Extraction Buffer (25 mmol/I. Tris.HCl, pH 7.6, 150 mmol/L, NaCl, 1% Nonidet P-40, 1% sodium deoxycholate, and 0.1% sodium dodecyl sulfate) containing proteinase inhibitor cocktail (Roche Diagnostics, Mannheim, Germany). Equal amounts of total protein were electrophoresed through 10% SDS-polyacrylamide gels after determination of protein concentration by BCA assay (Fisher Scientific, Pittsburgh, PA), The separated protein bands were transferred onto PVDF membranes (GE Healthcare Life Sciences, Marlborough, MA) and blotted against different antibodies, as indicated. The blots were scanned, and the band intensities were quantified using GelQuant.NET software provided by biochemlabsolutions.com. The relative mean intensity of target proteins was expressed after normalization to the intensity of glyceraldehyde-3-phosphate dehydrogenase bands.
row,DC50,SMILES
1,0.01 to 0.1 µM,"O=C1CCC(N2C(=O)c3cc4c(cc3C2=O)CN(CC(=O)N2CCC3(CC2)CCN(c2ccc([C@@H]5c6ccc(O)cc6CC[C@@H]5c5ccccc5)cc2)C3)C4)C(=O)N1 (mixture of isomers) [Compound B20, 2-(2,6-dioxopiperidin-3-yl)-6-(2-(2-(4-((1R,2S)-6-hydroxy-2-phenyl-1,2,3,4-tetrahydronaphthalen-1-yl)phenyl)-2,8-diazaspiro[4.5]decan-8-yl)-2-oxoethyl)-6,7-dihydropyrrolo[3,4-f]isoindole-1,3(2H,5H)-dione]"
2,> 0.1 µM,"O=C1CCC(N2C(=O)c3cc4c(cc3C2=O)CN(C(=O)CN2CCC3(CCN(c5ccc([C@@H]6c7ccc(O)cc7CC[C@@H]6c6ccccc6)cc5)CC3)C2)C4)C(=O)N1 (mixture of isomers) [Compound B21, 2-(2,6-dioxopiperidin-3-yl)-6-(2-(8-(4-((1R,2S)-6-hydroxy-2-phenyl-1,2,3,4-tetrahydronaphthalen-1-yl)phenyl)-2,8-diazaspiro[4.5]decan-2-yl)acetyl)-6,7-dihydropyrrolo[3,4-f]isoindole-1,3(2H,5H)-dione]"
3,> 0.1 µM,"O=C1CCC(N2C(=O)c3cc4c(cc3C2=O)CN(C(=O)CN2CCC3(CC2)CCN(c2ccc([C@@H]5c6ccc(O)cc6CC[C@@H]5c5ccccc5)cc2)C3)C4)C(=O)N1 (mixture of isomers) [Compound B22, 2-(2,6-dioxopiperidin-3-yl)-6-(2-(2-(4-((1R,2S)-6-hydroxy-2-phenyl-1,2,3,4-tetrahydronaphthalen-1-yl)phenyl)-2,8-diazaspiro[4.5]decan-8-yl)acetyl)-6,7-dihydropyrrolo[3,4-f]isoindole-1,3(2H,5H)-dione]"
4,0.01 to 0.1 µM,"C[C@@H]1CC2(CCN(c3ccc([C@@H]4c5ccc(O)cc5CC[C@@H]4c4ccc(F)cc4)cc3)CC2)CN1C(=O)CN1Cc2cc3c(cc2C1)C(=O)N(C1CCC(=O)NC1=O)C3=O (mixture of isomers) [Compound B26, 2-(2,6-dioxopiperidin-3-yl)-6-(2-((R)-8-(4-((1R,2S)-2-(4-fluorophenyl)-6-hydroxy-1,2,3,4-tetrahydronaphthalen-1-yl)phenyl)-3-methyl-2,8-diazaspiro[4.5]decan-2-yl)-2-oxoethyl)-6,7-dihydropyrrolo[3,4-f]isoindole-1,3(2H,5H)-dione]"
5,> 0.1 µM,"O=C1CCC(N2C(=O)c3cc4c(cc3C2=O)CN(C(=O)CN2CCC3(CC2)CN(c2ccc([C@@H]5c6ccc(O)cc6CC[C@@H]5c5ccccc5)cc2)C3)C4)C(=O)N1 (mixture of isomers) [Compound B29, 2-(2,6-dioxopiperidin-3-yl)-6-(2-(2-(4-((1R,2S)-6-hydroxy-2-phenyl-1,2,3,4-tetrahydronaphthalen-1-yl)phenyl)-2,7-diazaspiro[3.5]nonan-7-yl)acetyl)-6,7-dihydropyrrolo[3,4-f]isoindole-1,3(2H,5H)-dione]"
6,> 0.1 µM,"O=C1CCC(N2C(=O)c3cc4c(cc3C2=O)CN(C(=O)CN2CCC3(CC2)CCN(c2ccc([C@@H]5c6ccc(O)cc6CC[C@@H]5c5ccc(F)cc5)cc2)C3)C4)C(=O)N1 (mixture of isomers) [Compound B31, 2-(2,6-dioxopiperidin-3-yl)-6-(2-(2-(4-((1R,2S)-2-(4-fluorophenyl)-6-hydroxy-1,2,3,4-tetrahydronaphthalen-1-yl)phenyl)-2,8-diazaspiro[4.5]decan-8-yl)acetyl)-6,7-dihydropyrrolo[3,4-f]isoindole-1,3(2H,5H)-dione]"
7,> 0.1 µM,"O=C1CCC(N2C(=O)c3cc4c(cc3C2=O)CN(C(=O)CN2CCC3(CC2)CCN(c2ccc([C@@H]5c6ccc(O)cc6CC[C@@H]5c5ccccc5)c(F)c2)C3)C4)C(=O)N1 (mixture of isomers) [Compound B32, 2-(2,6-dioxopiperidin-3-yl)-6-(2-(2-(3-fluoro-4-((1S,2S)-6-hydroxy-2-phenyl-1,2,3,4-tetrahydronaphthalen-1-yl)phenyl)-2,8-diazaspiro[4.5]decan-8-yl)acetyl)-6,7-dihydropyrrolo[3,4-f]isoindole-1,3(2H,5H)-dione]"
8,> 0.1 µM,"O=C1CCC(N2C(=O)c3cc4c(cc3C2=O)CN(C(=O)CN2CCC3(CC2)CCN(c2ccc([C@@H]5c6ccc(O)cc6CC[C@@H]5c5ccccc5)cc2F)C3)C4)C(=O)N1 (mixture of isomers) [Compound B33, 2-(2,6-dioxopiperidin-3-yl)-6-(2-(2-(2-fluoro-4-((1R,2S)-6-hydroxy-2-phenyl-1,2,3,4-tetrahydronaphthalen-1-yl)phenyl)-2,8-diazaspiro[4.5]decan-8-yl)acetyl)-6,7-dihydropyrrolo[3,4-f]isoindole-1,3(2H,5H)-dione]"
9,> 0.1 µM,"O=C1CCC(N2C(=O)c3cc4c(cc3C2=O)CN(C(=O)CN2CCC3(CC2)CCN(c2c(F)cc([C@@H]5c6ccc(O)cc6CC[C@@H]5c5ccccc5)cc2F)C3)C4)C(=O)N1 (mixture of isomers) [Compound B34, 6-(2-(2-(2,6-difluoro-4-((1R,2S)-6-hydroxy-2-phenyl-1,2,3,4-tetrahydronaphthalen-1-yl)phenyl)-2,8-diazaspiro[4.5]decan-8-yl)acetyl)-2-(2,6-dioxopiperidin-3-yl)-6,7-dihydropyrrolo[3,4-f]isoindole-1,3(2H,5H)-dione]"
10,0.01 to 0.1 µM,"O=C1CCC(N2C(=O)c3cc4c(cc3C2=O)CN(CC2CCN(C(=O)C3CN(c5ccc([C@@H]6c7ccc(O)cc7CC[C@@H]6c6ccccc6)cc5)C3)CC2)C4)C(=O)N1 (mixture of isomers) [Compound B35, 2-(2,6-dioxopiperidin-3-yl)-6-((1-(1-(4-((1R,2S)-6-hydroxy-2-phenyl-1,2,3,4-tctrahydronaphthalcn-1-yl)phcnyl)azctidinc-3-carbonyl)piperidin-4-yl)methyl)-6,7-dihydropyrrolo[3,4-f]isoindole-1,3(2H,5H)-dione]"
11,> 0.1 µM,"O=C1CCC(N2C(=O)c3cc4c(cc3C2=O)CN(C(=O)CN2CCC3(CC2)CCN(c2ccc([C@@H]5c6ccc(B(O)O)cc6CC[C@@H]5c5ccccc5)cc2)CC3)C4)C(=O)N1 (mixture of isomers) [Compound B51, ((5R,6S)-5-(4-(9-(2-(6-(2,6-dioxopiperidin-3-yl)-5,7-dioxo-3,5,6,7-tetrahydropyrrolo[3,4-f]isoindol-2(1H)-yl)-2-oxoethyl)-3,9-diazaspiro[5.5]undecan-3-yl)phenyl)-6-phenyl-5,6,7,8-tetrahydronaphthalen-2-yl)boronic acid]"
12,> 0.1 µM,"O=C1CCC(N2C(=O)c3cc4c(cc3C2=O)CN(CC(=O)N2CCC3(CC2)CCN(c2ccc([C@H]5c6ccc(O)cc6CC[C@H]5c5ccccc5)cn2)CC3)C4)C(=O)N1 (mixture of isomers) [Compound B81, 2-(2,6-dioxopiperidin-3-yl)-6-(2-(9-(5-((1R,2R)-6-hydroxy-2-phenyl-1,2,3,4-tetrahydronaphthalen-1-yl)pyridin-2-yl)-3,9-diazaspiro[5.5]undecan-3-yl)-2-oxoethyl)-6,7-dihydropyrrolo[3,4-f]isoindole-1,3(2H,5H)-dione]"
13,> 0.1 µM,"O=C1CCC(N2C(=O)c3cc4c(cc3C2=O)CN(CC(=O)N2CCC3(CC2)CCN(c2ncc([C@H]5c6ccc(O)cc6CC[C@H]5c5ccccc5)cn2)CC3)C4)C(=O)N1 (mixture of isomers) [Compound B82, 2-(2,6-dioxopiperidin-3-yl)-6-(2-(9-(5-((1R,2R)-6-hydroxy-2-phenyl-1,2,3,4-tetrahydronaphthalen-1-yl)pyrimidin-2-yl)-3,9-diazaspiro[5.5]undecan-3-yl)-2-oxoethyl)-6,7-dihydropyrrolo[3,4-f]isoindole-1,3(2H,5H)-dione]"
